In general, IC50 refers to the concentration that inhibits the measured activity by half.

Common to all, as to type: cell-based
Experiment [1] concerns calcium mobilization in response to LTB4. As to the kind of experiment: LTB4-induced calcium mobilization in human neutrophils. The settings on record: compound 1 μM, LTB4 10 nM, FIG. 2. As for the experimental part:
Human granulocytes 95% neutrophils) are prepared from whole blood using Dextran 500 to remove red blood cells, followed by centrifugation over Ficoll-Paque to remove mononuclear cells and hypotonic lysis of any remaining red blood cells. After centrifugation the granulocytes are suspended in Ca^++/Mg^++-free phosphate-buffered saline (PBS). Granulocytes (10^7 cells/nil) are incubated with the acetoxymethyl ester of indo-1 ([…]) for 30 min, followed by washing twice with PBS^− and resuspension in the same medium to obtain a final cell concentration of 3.22×10^6 cells/ml. Five minutes prior to commencing data acquisition, Ca^++ and Mg^++ are added to give final concentrations of 1.8 and 1 mM, respectively. Calcium measurements are performed at 37° C. using a spectrofluorometer equipped with a temperature-controlled cuvette holder and a magnetic stirrer. The excitation and emission wavelengths are 331 nm and 410 nm, respectively. Following stabilization of the baseline, fluorescence is measured for 1 min, prior to the addition of either vehicle or various concentrations of a potential 5-oxo-ETE antagonist. […] Fmax is determined from fluorescence measurements after the addition of digitonin, whereas Fmin is determined after determination of autofluorescence as described in the literature (Gelfand et al, J. Biol. Chem. 261:11520 (1986)). […]
In general terms: Calcium flux is commonly read through the fluorescence of an indicator in the cells.

The target in experiment [2] is T1, OXE receptor (Homo sapiens, UniProt Q8TDS5). As to the kind of experiment: 5-oxo-ETE-induced actin polymerization (F-actin levels) in eosinophils. More on the design: endogenous in cells. The settings on record: 5-oxo-ETE 10 nM, Table 2. As for the experimental part:
F-actin levels in eosinophils are measured using unfractionated leukocytes, prepared as described above. Leukocytes (5×10^7 cells/ml) are treated with PC5-labeled mouse anti-human CD16 (10 μl/10^6 cells; Beckman-Coulter) for 30 min on ice. PBS (2 ml/10^6 cells) is then added and the mixture centrifuged at 200×g for 10 min. The pellet is resuspended in ice cold PBS containing Ca^++ (1.8 mM) and Mg^++ (1 mM) to give a concentration of 5×10^6 cells/ml. Aliquots (90 μl) of the leukocyte suspension are first incubated at 37° C. with either vehicle (10 μl PBS containing Ca^++ and Mg^++ and 0.1% BSA) or vehicle containing a 5-oxo-ETE antagonist. After 5 min, either vehicle or vehicle containing 5-oxo-ETE (final concentration, 10 nM) is added and the incubation continued for a further 20 s. The incubations are then terminated by addition of formaldehyde (37%) to give a final concentration of 8.5%. […] F-actin levels are measured by flow cytometry in eosinophils, which are gated based on high side scatter and low staining with anti-CD16. F-actin levels in the eosinophil population are assessed on the basis of fluorescence due to staining with NBD-phallacidin.

For experiment [3], the target named is T1, OXE receptor. The experiment is described as follows: 5-oxo-ETE-induced calcium mobilization in human granulocytes. Details: Human granulocytes 95% neutrophils) are prepared from whole blood; endogenous in cells; host or cells: human blood granulocytes (>=95% neutrophils). As for the experimental part: Primary Screening for Antagonist Activity: Calcium Mobilization in Human Granulocytes
Human granulocytes 95% neutrophils) are prepared from whole blood using Dextran 500 to remove red blood cells, followed by centrifugation over Ficoll-Paque to remove mononuclear cells and hypotonic lysis of any remaining red blood cells. After centrifugation the granulocytes are suspended in Ca^++/Mg^++-free phosphate-buffered saline (PBS). Granulocytes (10^7 cells/nil) are incubated with the acetoxymethyl ester of indo-1 ([…]) for 30 min, followed by washing twice with PBS^− and resuspension in the same medium to obtain a final cell concentration of 3.22×10^6 cells/ml. Five minutes prior to commencing data acquisition, Ca^++ and Mg^++ are added to give final concentrations of 1.8 and 1 mM, respectively. Calcium measurements are performed at 37° C. using a spectrofluorometer equipped with a temperature-controlled cuvette holder and a magnetic stirrer. The excitation and emission wavelengths are 331 nm and 410 nm, respectively. Following stabilization of the baseline, fluorescence is measured for 1 min, prior to the addition of either vehicle or various concentrations of a potential 5-oxo-ETE antagonist. Two min later, 5-oxo-ETE (10 nM) is added, followed 1 min later by digitonin (final concentration 0.1%). Data acquisition is terminated after a further 0.5 min. In some cases LTB4 (10 nM) is added 2 min after 5-oxo-ETE, followed 0.5 min later by addition of digitonin. Fmax is determined from fluorescence measurements after the addition of digitonin, whereas Fmin is determined after determination of autofluorescence as described in the literature (Gelfand et al, J. Biol. Chem. 261:11520 (1986)). A dissociation constant of 250 nM for the indo-1/Ca^++ complex is used to calculate [Ca^++]i. […] Measurement of Actin Polymerization in Eosinophils

Experiment [4] concerns the target T1, OXE receptor. As to the kind of experiment: Neutrophil migration (chemotaxis) induced by 5-oxo-ETE, microchemotaxis chambers. More on the design: Human granulocytes 95% neutrophils) are prepared from whole blood; endogenous in cells; host or cells: human blood granulocytes (>=95% neutrophils). As to conditions: 5-oxo-ETE 100 nM; human granulocytes; Table 2. As for the experimental part:
Cell migration is measured by the modified Boyden technique using 48-well microchemotaxis chambers and Sartorius cellulose nitrate filters (8 μm pore size; 140 μm thickness) as described previously (Powell et al., J Immunol 156: 336 (1996)). Granulocytes (≧95% neutrophils) are prepared as described above. Immediately prior to use the filters are soaked in PBS containing calcium (1 mM), magnesium (1 mM), and 0.3% BSA. Either vehicle (PBS containing Ca^++, Mg^++, and 0.3% BSA) or vehicle containing 5-oxo-ETE (100 nM final concentration) is added to the bottom well in a volume of 30 μl, whereas neutrophils (150,000 cells in 55 μl PBS containing Ca^++, Mg^++ and 0.4% ovalbumin) and either vehicle or various concentrations of a 5-oxo-ETE antagonist are added to each of the top wells. The chambers are incubated for 2 h at 37° C. in 5% CO2 and humidified air. […] The filters are mounted on slides with coverslips using Permount and the numbers of cells on the bottom surfaces of the filters are counted in 5 different fields at a magnification of 400× for each incubation, each of which is performed in triplicate. In cases in which there are large numbers of cells on the bottom surfaces of the filters only quarter or half fields are counted and the results corrected accordingly.

The mark [5] stands for this setting: 5-oxo-ETE 10 nM, human granulocytes, Table 2, read-out: IC50 (μM) Ca^++.

SMILES strings stand for the structures.

T1 sequence (Q8TDS5 whole entry): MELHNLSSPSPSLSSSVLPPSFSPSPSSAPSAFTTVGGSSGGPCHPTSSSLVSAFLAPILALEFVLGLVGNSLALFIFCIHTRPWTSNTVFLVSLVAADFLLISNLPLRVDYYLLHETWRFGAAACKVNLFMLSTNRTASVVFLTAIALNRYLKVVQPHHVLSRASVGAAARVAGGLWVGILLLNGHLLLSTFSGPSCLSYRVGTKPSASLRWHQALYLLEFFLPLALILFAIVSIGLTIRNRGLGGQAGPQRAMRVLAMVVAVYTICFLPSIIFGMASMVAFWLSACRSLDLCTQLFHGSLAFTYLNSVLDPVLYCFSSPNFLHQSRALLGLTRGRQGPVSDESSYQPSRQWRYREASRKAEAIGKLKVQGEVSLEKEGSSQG

Consider `CCCCCCc1c(C(=O)CC(C)CC(=O)O)c2cc(Cl)ccc2n1C` (racemic) [Compound 60, 5-(5-Chloro-2-hexyl-1-methyl-1H-indol-3-yl)-3-methyl-5-oxo-pentanoic acid], for which the “effect on calcium mobilization in response to LTB4” value in experiment [1] was “not to LTB4”. The IC50 came to 0.072 µM in experiment [2], 0.025 µM in experiment [3] (setting [5]) and 0.11 µM in experiment [4]. The “effect on calcium mobilization in response to 5-oxo-ETE” value in experiment [3] (compound 1 μM, 5-oxo-ETE 10 nM, human neutrophils, FIG. 2) is given as “completely blocked”.
For the compound `CCCCCCc1cc2ccccc2n1C(=O)CC(C)CC(=O)O` (stereo not shown) [Compound 2, 5-(2-Hexyl-indol-1-yl)-3-methyl-5-oxo-pentanoic acid], the IC50 is 0.46 µM in experiment [2]; 0.09 µM in experiment [3] (setting [5]); 0.09 µM in experiment [3] (Table 6, carboxyl side chain variation, readout not given, values match Ca^++, read-out: IC50); 0.09 µM in experiment [3] (Table 7, alkyl variation, readout not given, values match Ca^++, read-out: IC50); 0.82 µM in experiment [4].
Consider `CCCCCCc1c(C(=O)CC(C)CC(=O)NC(C)c2ccccc2)c2cc(Cl)ccc2n1C` (stereo not shown) [Compound 105, 5-(5-chloro-2-hexyl-1-methyl-1H-indol-3-yl)-3-methyl-5-oxo-N-(1-phenylethyl)pentanamide], for which the half-maximal inhibitory concentration (IC50) in experiment [3] (setting [5]) is over 10 µM.
Consider `CCCCCCc1c(C(=O)C[C@@H](C)CC(=O)NC(C)c2ccccc2)c2cc(Cl)ccc2n1C` (stereo partly drawn) [Compound 106, 5-(5-Chloro-2-hexyl-1-methyl-1H-indol-3-yl)-3-(R)-methyl-5-oxo-pentanoic acid (1-phenyl-ethyl)-amide], for which the IC50 in experiment [3] (setting [5]) was over 10 µM.
With `CCCCCCc1c(C(=O)c2cccc(C(=O)O)c2)c2cc(Cl)ccc2n1C` [Compound 108, 3-(5-Chloro-2-hexyl-1-methyl-1H-indole-3-carbonyl)benzoic acid], the concentration for half-maximal inhibition (IC50) in experiment [3] is 0.065 µM.
Consider `CC(C)CCCCc1cc2ccc(Cl)cc2n1C(=O)CC(C)CC(=O)O` (stereo not shown) [Compound 110, 5-[6-Chloro-2-(5-methyl-hexyl)-indol-1-yl]-3-methyl-5-oxo-pentanoic acid], for which, in experiment [3] (setting [5]), the IC50 was found to be 1.03 µM.
As for `CC(C)CCCCc1c(C(=O)CC(C)CC(=O)O)c2cc(Cl)ccc2n1C` (stereo not shown) [Compound 114, 5-[5-Chloro-1-methyl-2-(5-methyl-hexyl)-1H-indol-3-yl]-3-methyl-5-oxo-pentanoic acid], the IC50 in experiment [3] (setting [5]) came out at 0.011 µM.
`CCCCCCc1cc2ccc(Cl)cc2n1C(=O)CCC(C)(C)C(=O)O` [Compound 116, 5-(6-Chloro-2-hexyl-indol-1-yl)-2,2-dimethyl-5-oxo-pentanoic acid]: the IC50 in experiment [3] (setting [5]) was over 10 µM.

The values are drawn from patent US9464048B2, “5-oxo-ETE receptor antagonist compounds” (THE ROYAL INSTITUTION FOR THE ADVANCEMENT OF …, priority 2009, dated 2016).
